Results as given in US20190343908A1, “Therapeutic Combination for the Treatment of Cancer” (Nerium Biotechnology Inc., priority 2011, published 2019).

Legend:
[1] = test system: MCF-7 (human breast cancer); test: Sulforhodamine B viability assay, MCF-7; assay type: cell-based; parameters: key: absorbance (optical density) at 570 nm, second wavelength subtracted
Source text: (§1) Three different viability assays were chosen to complement each other and yielded results dependent on concentration and cell line: the Methyl Tetrazolium dye assay, the Sulforhodamine B fluorescent dye assay, and the Crystal Violet dye assay.
The Sulforhodamine B and Crystal Violet assays provide information about protein and were used to complement the Methyl-Tetrazolium dye assay. […] It is used for the quantification of cellular proteins of cultured cells. The assay using Crystal Violet, a dye that binds electrostatically to proteins and stains DNA, provides a reliable, simple assay for measuring viability of cells.
(§2) The Methyl Tetrazolium, Sulforhodamine B, and Crystal Violet assays were used to assess cell viabilities. The incubation times were 24 hours, 48 hours, and 72 hours. The Nerium oleander extract Anvirzel™ (a hot water extract of oleander obtained from Salud Integral, Honduras) was tested in concentrations ranging from 0.01 ng/mL to 10 ng/mL.
(§3) Cells were detached by trypsinization (Trypsin-0.25% EDTA, Invitrogen, 25200-072) during the logarithmic phase of culture growth and plated in 96-well plates (18.000 cells/well) (Corning, Costar 359) in a final volume of 200 μl of medium per well. […] The absorbance was measured after 24 hours, 48 hours, and 72 hours of incubation.
For the Sulforhodamine B assay, 96-well plates were fixed by 10% trichloroacetic acid (Fluka, 91228) and were incubated at 4° C. for 1 hour. Afterwards, plates were rinsed with water and cells were stained with 0.4% Sulforhodamine B (Sigma, 341738), dissolved in 1% acetic acid (Carlo Ebra, 401422) for 15 minutes at room temperature (RT). The unbound stain was washed twice with 1% acetic acid. Finally, 10 mM Tris Buffer pH 10.5 (Sigma, T6791) was added to dissolve the dye.
(§4) The optical density of each plate was measured on a μQuant spectrophotometer and the data were analyzed with Gen5 software (μQuant Biomolecular Spectrophotometer MQX200 and Gen5™ Microplate Data Collection & Analysis software, BioTek® Instruments. Inc, April 2008). Absorbance was measured at 570 nm for all assays and a second wavelength was measured in order to subtract noise. For the Methyl-Tetrazolium assay this second wavelength was 630 nm and for the Sulforhodamine B and Crystal Violet assays it was 690 nm.

HT55 (colorectal cancer) = test: Methyl-Tetrazolium viability assay, HT55; assay type: cell-based, human; parameters: key: absorbance (optical density) at 570 nm, second wavelength subtracted
Source text: as §1
The Methyl-Tetrazolium dye assay measures the activity of enzymes in mitochondria. The dye precursor is taken up by cells, where it undergoes reduction to the purple formazan. It measures only the mitochondrial activity and, thus, it is not always a reliable indication of whether the cells themselves are alive or dead, since even a recently dead cell has […] enzyme activity in mitochondria. Intracellular glucose concentration, pH, and time before assay all affect the measurements.
as §2, §3
For the Methyl-Tetrazolium assay, the dye (Sigma, M2128; 5 mg/mL, diluted in phosphate-buffered saline) was added to each well and plates were incubated for 3 hours at 37° C. After the end of the incubation period, the medium was discarded and the cells were rinsed with phosphate-buffered saline. Finally, the formazan crystals were dissolved in dimethylsulphoxide (Sigma, D4540).
as §4

## N.N.[Cl][Pt][Cl] [cisplatin]
[1]; MCF-7, Run 2, 24 h, 0.1 μg/ml CDDP
  SRB Average: 1.754
[1]; MCF-7, Run 2, 24 h, 1 μg/ml CDDP
  SRB Average: 1.225
[1]; MCF-7, Run 2, 24 h, 10 μg/ml CDDP
  SRB Average: 1.717
[1]; MCF-7, Run 2, 24 h, 100 μg/ml CDDP
  SRB Average: 1.056
[1]; MCF-7, Run 2, 48 h, 0.1 μg/ml CDDP
  SRB Average: 2.037
[1]; MCF-7, Run 2, 48 h, 1 μg/ml CDDP
  SRB Average: 0.874
[1]; MCF-7, Run 2, 48 h, 10 μg/ml CDDP
  SRB Average: 0.88
[1]; MCF-7, Run 2, 48 h, 100 μg/ml CDDP
  SRB Average: 0.985
[1]; MCF-7, Run 2, 72 h, 0.1 μg/ml CDDP
  SRB Average: 2.289
[1]; MCF-7, Run 2, 72 h, 1 μg/ml CDDP
  SRB Average: 1.409
[1]; MCF-7, Run 2, 72 h, 10 μg/ml CDDP
  SRB Average: 1.179
[1]; MCF-7, Run 2, 72 h, 100 μg/ml CDDP
  SRB Average: 0.897
[1]; MCF-7, Run 3, 24 h, 0.1 μg/ml CDDP
  SRB Average: 2.843
[1]; MCF-7, Run 3, 24 h, 1 μg/ml CDDP
  SRB Average: 1.805
[1]; MCF-7, Run 3, 24 h, 10 μg/ml CDDP
  SRB Average: 2.092
[1]; MCF-7, Run 3, 24 h, 100 μg/ml CDDP
  SRB Average: 1.077
[1]; MCF-7, Run 3, 48 h, 0.1 μg/ml CDDP
  SRB Average: 2.371
[1]; MCF-7, Run 3, 48 h, 1 μg/ml CDDP
  SRB Average: 1.787
[1]; MCF-7, Run 3, 48 h, 10 μg/ml CDDP
  SRB Average: 1.338
[1]; MCF-7, Run 3, 48 h, 100 μg/ml CDDP
  SRB Average: 1.673
[1]; MCF-7, Run 3, 72 h, 0.1 μg/ml CDDP
  SRB Average: 2.522
[1]; MCF-7, Run 3, 72 h, 1 μg/ml CDDP
  SRB Average: 1.885
[1]; MCF-7, Run 3, 72 h, 10 μg/ml CDDP
  SRB Average: 1.622
[1]; MCF-7, Run 3, 72 h, 100 μg/ml CDDP
  SRB Average: 1.181
[1]; MCF-7 Run 1, 24 h, 0.1 μg/ml CDDP
  SRB Average: 2.066
[1]; MCF-7 Run 1, 24 h, 1 μg/ml CDDP
  SRB Average: 1.404
[1]; MCF-7 Run 1, 24 h, 10 μg/ml CDDP
  SRB Average: 1.825
[1]; MCF-7 Run 1, 24 h, 100 μg/ml CDDP
  SRB Average: 1.579
[1]; MCF-7 Run 1, 48 h, 0.1 μg/ml CDDP
  SRB Average: 2.67
[1]; MCF-7 Run 1, 48 h, 1 μg/ml CDDP
  SRB Average: 1.873
[1]; MCF-7 Run 1, 48 h, 10 μg/ml CDDP
  SRB Average: 1.731
[1]; MCF-7 Run 1, 48 h, 100 μg/ml CDDP
  SRB Average: 1.452
[1]; MCF-7 Run 1, 72 h, 0.1 μg/ml CDDP
  SRB Average: 2.779
[1]; MCF-7 Run 1, 72 h, 1 μg/ml CDDP
  SRB Average: 1.762
[1]; MCF-7 Run 1, 72 h, 10 μg/ml CDDP
  SRB Average: 1.702
[1]; MCF-7 Run 1, 72 h, 100 μg/ml CDDP
  SRB Average: 1.024
HT55 (colorectal cancer); HT55, Run 1, 24 h, 0.1 μg/ml CDDP
  MTT Average: 0.096
HT55 (colorectal cancer); HT55, Run 1, 24 h, 1 μg/ml CDDP
  MTT Average: 0.02
HT55 (colorectal cancer); HT55, Run 1, 24 h, 10 μg/ml CDDP
  MTT Average: 0.054
HT55 (colorectal cancer); HT55, Run 1, 24 h, 100 μg/ml CDDP
  MTT Average: 0.019
HT55 (colorectal cancer); HT55, Run 1, 48 h, 0.1 μg/ml CDDP
  MTT Average: 0.177
HT55 (colorectal cancer); HT55, Run 1, 48 h, 1 μg/ml CDDP
  MTT Average: 0.015
HT55 (colorectal cancer); HT55, Run 1, 48 h, 10 μg/ml CDDP
  MTT Average: 0.03
HT55 (colorectal cancer); HT55, Run 1, 48 h, 100 μg/ml CDDP
  MTT Average: 0.012
HT55 (colorectal cancer); HT55, Run 1, 72 h, 0.1 μg/ml CDDP
  MTT Average: 0.315
HT55 (colorectal cancer); HT55, Run 1, 72 h, 1 μg/ml CDDP
  MTT Average: 0.025
HT55 (colorectal cancer); HT55, Run 1, 72 h, 10 μg/ml CDDP
  MTT Average: 0.026
HT55 (colorectal cancer); HT55, Run 1, 72 h, 100 μg/ml CDDP
  MTT Average: 0.017
HT55 (colorectal cancer); HT55 Run 2, 24 h, 0.1 μg/ml CDDP
  MTT Average: 0.215
HT55 (colorectal cancer); HT55 Run 2, 24 h, 1 μg/ml CDDP
  MTT Average: 0.023
HT55 (colorectal cancer); HT55 Run 2, 24 h, 10 μg/ml CDDP
  MTT Average: 0.053
HT55 (colorectal cancer); HT55 Run 2, 24 h, 100 μg/ml CDDP
  MTT Average: 0.018
HT55 (colorectal cancer); HT55 Run 2, 48 h, 0.1 μg/ml CDDP
  MTT Average: 0.381
HT55 (colorectal cancer); HT55 Run 2, 48 h, 1 μg/ml CDDP
  MTT Average: 0.028
HT55 (colorectal cancer); HT55 Run 2, 48 h, 10 μg/ml CDDP
  MTT Average: 0.031
HT55 (colorectal cancer); HT55 Run 2, 48 h, 100 μg/ml CDDP
  MTT Average: 0.025
HT55 (colorectal cancer); HT55 Run 2, 72 h, 0.1 μg/ml CDDP
  MTT Average: 0.488
HT55 (colorectal cancer); HT55 Run 2, 72 h, 1 μg/ml CDDP
  MTT Average: 0.032
HT55 (colorectal cancer); HT55 Run 2, 72 h, 10 μg/ml CDDP
  MTT Average: 0.028
HT55 (colorectal cancer); HT55 Run 2, 72 h, 100 μg/ml CDDP
  MTT Average: 0.021
HT55 (colorectal cancer); HT55 Run 3, 24 h, 0.1 μg/ml CDDP
  MTT Average: 0.205
HT55 (colorectal cancer); HT55 Run 3, 24 h, 1 μg/ml CDDP
  MTT Average: 0.035
HT55 (colorectal cancer); HT55 Run 3, 24 h, 10 μg/ml CDDP
  MTT Average: 0.206
HT55 (colorectal cancer); HT55 Run 3, 24 h, 100 μg/ml CDDP
  MTT Average: 0.028
HT55 (colorectal cancer); HT55 Run 3, 48 h, 0.1 μg/ml CDDP
  MTT Average: 0.331
HT55 (colorectal cancer); HT55 Run 3, 48 h, 1 μg/ml CDDP
  MTT Average: 0.04
HT55 (colorectal cancer); HT55 Run 3, 48 h, 10 μg/ml CDDP
  MTT Average: 0.361
HT55 (colorectal cancer); HT55 Run 3, 48 h, 100 μg/ml CDDP
  MTT Average: 0.038
HT55 (colorectal cancer); HT55 Run 3, 72 h, 0.1 μg/ml CDDP
  MTT Average: 0.359
HT55 (colorectal cancer); HT55 Run 3, 72 h, 1 μg/ml CDDP
  MTT Average: 0.032
HT55 (colorectal cancer); HT55 Run 3, 72 h, 10 μg/ml CDDP
  MTT Average: 0.353
HT55 (colorectal cancer); HT55 Run 3, 72 h, 100 μg/ml CDDP
  MTT Average: 0.031
